Results: ChEMBL document CHEMBL4028815, “Novel phosphonate analogs of sulforaphane: Synthesis, in vitro and in vivo anticancer activity” (Eur J Med Chem, 2017)
The source made the active and inactive calls. The rule behind the calls is not given here.

Assays:
LoVo [1] = experiment: Potency index, ratio of sulforaphane IC50 to compound IC50 for human LoVo cells; type: functional
LoVo [2] = experiment: Potency index, ratio of benzyl isothiocyanate IC50 to compound IC50 for human LoVo cells; type: functional
LoVo [3] = experiment: Cytotoxicity against human LoVo cells after 72 hrs by sulforhodamine B assay; type: functional, cell-based
[4] = Cytotoxicity against human LoVo/DX cells after 72 hrs by sulforhodamine B assay; type: functional, cell-based
HL-60 = experiment: Cytotoxicity against human HL60 cells after 72 hrs by sulforhodamine B assay; type: functional, cell-based; conditions: HL-60, 72 h
HL60/MX2 = experiment: Cytotoxicity against human HL60/MX2 cells after 72 hrs by sulforhodamine B assay; type: functional, cell-based; conditions: HL60/MX2, 72 h
[5] = Resistance index, ratio of IC50 for human HL60/MX2 cells to IC50 for human HL60 cells; type: functional
[6] = Induction of apoptosis in human LoVo/DX cells assessed as increase in caspase3/7 activity at 15 uM using Ac-DEVD-ACC as substrate pretreated for 24 hrs followed by substrate addition measured for 2 hrs by fluorescence assay relative to control; type: functional
LoVo [7] = experiment: Induction of apoptosis in human LoVo cells assessed as increase in caspase3/7 activity at 15 uM using Ac-DEVD-ACC as substrate pretreated for 24 hrs followed by substrate addition measured for 2 hrs by fluorescence assay relative to control; type: functional
LoVo [8] = experiment: Induction of apoptosis in human LoVo cells assessed as loss of mitochondrial membrane potential at 15 uM after 24 hrs by JC-1 staining based flow cytometric method relative to control; type: functional
[9] = Induction of apoptosis in human LoVo/DX cells assessed as loss of mitochondrial membrane potential at 15 uM after 24 hrs by JC-1 staining based flow cytometric method relative to control; type: functional
LoVo [10] = experiment: Induction of apoptosis in human LoVo cells assessed as late apoptotic cells at 15 uM after 24 hrs by APC-Annexin-V/propidium iodide staining based flow cytometric method relative to control; type: functional
LoVo/DX = experiment: Induction of apoptosis in human LoVo/DX cells assessed as late apoptotic cells at 15 uM after 24 hrs by APC-Annexin-V/propidium iodide staining based flow cytometric method relative to control; type: functional
LoVo [11] = experiment: Induction of apoptosis in human LoVo cells assessed as increase in early apoptotic cells at 15 uM after 24 hrs by APC-Annexin-V/propidium iodide staining based flow cytometric method relative to control; type: functional
LoVo [12] = experiment: Induction of apoptosis in human LoVo cells assessed as necrotic cells at 15 uM after 24 hrs by APC-Annexin-V/propidium iodide staining based flow cytometric method (reference value: 10%); type: functional

Row | SMILES | IC50 (LoVo [3]) | IC50 [4] | also measured
1 | O=P(CCCCN=C=S)(Oc1ccccc1)Oc1ccccc1 | 2.3 µM | 3.1 µM | Ratio IC50 (LoVo [1]): 10; Ratio IC50 (LoVo [2]): 5
2 | CCOP(=O)(CCCCN=C=S)OCC | 4.6 µM | 10.2 µM | –
3 | O=P(CCCN=C=S)(OCC(F)(F)F)OCC(F)(F)F | 3.9 µM | 4.7 µM | –
4 | O=P(CCN=C=S)(OCC(F)(F)F)OCC(F)(F)F | 5.5 µM | 8.2 µM | –
5 | CC(C)OP(=O)(CCCCCN=C=S)OC(C)C | 2.6 µM | 7.9 µM | Ratio IC50 (LoVo [1]): 10; Ratio IC50 (LoVo [2]): 5
6 | CCOP(=O)(CCCCCN=C=S)OCC | 2.8 µM | 3.1 µM | Ratio IC50 (LoVo [1]): 10; Ratio IC50 (LoVo [2]): 5
7 | CC(C)COP(=O)(CCCCN=C=S)OCC(C)C | 3.3 µM | 10.4 µM | –
8 | COP(=O)(CCN=C=S)OC | 12.3 µM | 12.4 µM | –
9 | O=P(CCCCN=C=S)(OCc1ccccc1)OCc1ccccc1 | 3.8 µM | 8.4 µM | –
10 | CC(C)OP(=O)(CCN=C=S)OC(C)C | 2.7 µM | 3.6 µM | Ratio IC50 (LoVo [1]): 10; Ratio IC50 (LoVo [2]): 5
11 | CC(C)COP(=O)(CCCN=C=S)OCC(C)C | 2.4 µM | 5.6 µM | Ratio IC50 (LoVo [1]): 10; Ratio IC50 (LoVo [2]): 5
12 | C=CCOP(=O)(CCCCN=C=S)OCC=C | 5.2 µM | 3.7 µM | –
13 | O=P(CCCCN=C=S)(OCC1CCCO1)OCC1CCCO1 (stereo not drawn) | 5 µM | 7.6 µM | –
14 | CC(C)OP(=O)(CCCN=C=S)OC(C)C | 2.6 µM | 3.3 µM | Ratio IC50 (LoVo [1]): 10; Ratio IC50 (LoVo [2]): 5
15 | COP(=O)(CCCCN=C=S)OC | 5.4 µM | 6.5 µM | –
16 | O=P(CCCCCN=C=S)(OCc1ccccc1)OCc1ccccc1 | 3.5 µM | 8.5 µM | –
17 | O=P(CCN=C=S)(Oc1ccccc1)Oc1ccccc1 | 10.5 µM | 11.4 µM | –
18 | COP(=O)(CCCCCCN=C=S)OC | 5.4 µM | 9.9 µM | –
19 | C=CCN=C=S [ALLYL ISOTHIOCYANATE] | 21.2 µM | 29.3 µM | –
20 | CC(C)(C)COP(=O)(CCCCN=C=S)OCC(C)(C)C | 10.2 µM | 10.6 µM | –
21 | CC(C)COP(=O)(CCCCCN=C=S)OCC(C)C | 2.4 µM | 5.1 µM | Ratio IC50 (LoVo [1]): 10; Ratio IC50 (LoVo [2]): 5

Row | SMILES | IC50 (LoVo [3]) | IC50 [4] | also measured
22 | COP(=O)(CCCCCN=C=S)OC | 5 µM | 9.4 µM | –
23 | CC(C)(C)COP(=O)(CCCCCCN=C=S)OCC(C)(C)C | 7.4 µM | 11.2 µM | –
24 | O=P(CCCCCCN=C=S)(OCC(F)(F)F)OCC(F)(F)F | 4.2 µM | 8.8 µM | –
25 | CCOP(=O)(CCN=C=S)OCC | 4.5 µM | 6.1 µM | –
26 | CCOP(=O)(CCCCCCCCCCN=C=S)OCC | 10 µM | 13.1 µM | –
27 | O=P(CCCCCN=C=S)(OCC(F)(F)F)OCC(F)(F)F | 5.4 µM | 10.5 µM | –
28 | CC(C)(C)COP(=O)(CCCN=C=S)OCC(C)(C)C | 10.2 µM | 14 µM | –
29 | O=P(CCCCN=C=S)(OCC(F)(F)F)OCC(F)(F)F | 4.9 µM | 5.7 µM | –
30 | CCC(C)OP(=O)(CCCCN=C=S)OC(C)CC (stereo not drawn) | 4.3 µM | 3.6 µM | –
31 | CC(C)[C@@H]1CC[C@@H](C)C[C@H]1OP(=O)(CCCCN=C=S)O[C@@H]1C[C@H](C)CC[C@H]1C(C)C | 5.1 µM | 5.8 µM | –
32 | COP(=O)(CCCN=C=S)OC | 9.3 µM | 9.6 µM | –
33 | O=C1c2c(O)ccc(O)c2C(=O)c2c(NCCNCCO)ccc(NCCNCCO)c21 [MITOXANTRONE] | – | – | IC50 (HL-60): 0.004 µM; IC50 (HL60/MX2): 0.148 µM; Ratio IC50 [5]: 37
34 | O=P(CCCCCCN=C=S)(OCc1ccccc1)OCc1ccccc1 | 4.6 µM | 9.2 µM | –
35 | CC(C)(C)COP(=O)(CCCCCN=C=S)OCC(C)(C)C | 8.9 µM | 10.8 µM | –
36 | O=P(CCCCCN=C=S)(Oc1ccccc1)Oc1ccccc1 | 2.2 µM | 4.6 µM | Ratio IC50 (LoVo [1]): 10; Ratio IC50 (LoVo [2]): 5
37 | C#CCOP(=O)(CCCCN=C=S)OCC#C | 3.2 µM | 11.3 µM | –
38 | CC(C)OP(=O)(CCCCN=C=S)OC(C)C | 2.5 µM | 5 µM | Ratio IC50 (LoVo [1]): 10; Ratio IC50 (LoVo [2]): 5
39 | C[S+]([O-])CCCCN=C=S (stereo not drawn) [SULFORAPHANE] | 22.9 µM | 18.1 µM | fold change (FC) [6]: 2.52; fold change (FC) (LoVo [7]): 1.41; Activity (LoVo [8]): 35%; Activity [9]: 35%; Activity (LoVo [10]): Active; Activity (LoVo/DX): Active; Activity (LoVo [11]): inactive; Activity (LoVo [12]): Active
40 | CCOP(=O)(CCCN=C=S)OCC | 2.9 µM | 3 µM | Ratio IC50 (LoVo [1]): 10; Ratio IC50 (LoVo [2]): 5
41 | O=P(CCCN=C=S)(Oc1ccccc1)Oc1ccccc1 | 4.2 µM | 10.2 µM | –
42 | CC[C@H](C)OP(=O)(CCCCN=C=S)O[C@@H](C)CC | 4.2 µM | 4.5 µM | –
